Assays:
[1] = target: T1, Mitogen-activated protein kinase kinase kinase 15 (Homo sapiens) (UniProt Q6ZN16); assay: Selectivity interaction (KinomeScan (DiscoverX)) EUB0000229b MAP3K15; conditions: at 10 µM
T1 sequence (whole entry): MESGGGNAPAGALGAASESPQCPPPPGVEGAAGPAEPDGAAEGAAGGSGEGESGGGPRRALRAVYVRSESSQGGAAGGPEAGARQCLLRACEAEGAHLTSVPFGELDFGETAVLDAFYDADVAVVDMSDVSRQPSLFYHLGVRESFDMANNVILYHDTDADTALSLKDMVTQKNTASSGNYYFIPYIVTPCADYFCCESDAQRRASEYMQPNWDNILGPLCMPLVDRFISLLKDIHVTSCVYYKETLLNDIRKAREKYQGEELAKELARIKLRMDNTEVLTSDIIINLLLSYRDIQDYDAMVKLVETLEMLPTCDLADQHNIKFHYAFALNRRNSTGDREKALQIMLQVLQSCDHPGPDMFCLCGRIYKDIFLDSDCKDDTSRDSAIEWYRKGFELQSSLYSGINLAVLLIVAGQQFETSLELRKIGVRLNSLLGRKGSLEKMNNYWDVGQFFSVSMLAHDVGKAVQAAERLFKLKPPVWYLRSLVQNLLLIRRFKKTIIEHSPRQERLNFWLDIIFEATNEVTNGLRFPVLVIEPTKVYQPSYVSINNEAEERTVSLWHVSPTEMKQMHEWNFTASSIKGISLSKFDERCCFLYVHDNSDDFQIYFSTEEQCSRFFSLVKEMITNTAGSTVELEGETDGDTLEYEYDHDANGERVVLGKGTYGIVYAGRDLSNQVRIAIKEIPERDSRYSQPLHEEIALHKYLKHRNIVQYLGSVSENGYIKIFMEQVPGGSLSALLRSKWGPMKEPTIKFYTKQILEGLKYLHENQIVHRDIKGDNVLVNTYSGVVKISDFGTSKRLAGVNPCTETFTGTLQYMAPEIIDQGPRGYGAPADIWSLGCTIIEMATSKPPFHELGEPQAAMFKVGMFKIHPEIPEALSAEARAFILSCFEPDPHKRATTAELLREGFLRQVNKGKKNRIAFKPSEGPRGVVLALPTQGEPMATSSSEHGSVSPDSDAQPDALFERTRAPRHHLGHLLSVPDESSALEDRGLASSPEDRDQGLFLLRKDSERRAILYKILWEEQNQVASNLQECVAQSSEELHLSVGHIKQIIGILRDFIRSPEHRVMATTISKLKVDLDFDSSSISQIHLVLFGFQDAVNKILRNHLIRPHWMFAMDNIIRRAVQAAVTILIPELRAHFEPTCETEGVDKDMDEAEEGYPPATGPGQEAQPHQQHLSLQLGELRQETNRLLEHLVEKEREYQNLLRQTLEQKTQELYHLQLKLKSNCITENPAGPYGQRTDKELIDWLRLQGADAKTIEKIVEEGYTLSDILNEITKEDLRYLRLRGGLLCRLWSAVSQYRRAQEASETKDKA

[2] = target: Serine/threonine-protein kinase B-raf (Homo sapiens) (UniProt P15056); assay: (§1) Selectivity interaction (KinomeScan (DiscoverX)) EUB0000229b BRAF; conditions: at 10 µM
Chain of Serine/threonine-protein kinase B-raf (Homo sapiens) (P15056 whole entry): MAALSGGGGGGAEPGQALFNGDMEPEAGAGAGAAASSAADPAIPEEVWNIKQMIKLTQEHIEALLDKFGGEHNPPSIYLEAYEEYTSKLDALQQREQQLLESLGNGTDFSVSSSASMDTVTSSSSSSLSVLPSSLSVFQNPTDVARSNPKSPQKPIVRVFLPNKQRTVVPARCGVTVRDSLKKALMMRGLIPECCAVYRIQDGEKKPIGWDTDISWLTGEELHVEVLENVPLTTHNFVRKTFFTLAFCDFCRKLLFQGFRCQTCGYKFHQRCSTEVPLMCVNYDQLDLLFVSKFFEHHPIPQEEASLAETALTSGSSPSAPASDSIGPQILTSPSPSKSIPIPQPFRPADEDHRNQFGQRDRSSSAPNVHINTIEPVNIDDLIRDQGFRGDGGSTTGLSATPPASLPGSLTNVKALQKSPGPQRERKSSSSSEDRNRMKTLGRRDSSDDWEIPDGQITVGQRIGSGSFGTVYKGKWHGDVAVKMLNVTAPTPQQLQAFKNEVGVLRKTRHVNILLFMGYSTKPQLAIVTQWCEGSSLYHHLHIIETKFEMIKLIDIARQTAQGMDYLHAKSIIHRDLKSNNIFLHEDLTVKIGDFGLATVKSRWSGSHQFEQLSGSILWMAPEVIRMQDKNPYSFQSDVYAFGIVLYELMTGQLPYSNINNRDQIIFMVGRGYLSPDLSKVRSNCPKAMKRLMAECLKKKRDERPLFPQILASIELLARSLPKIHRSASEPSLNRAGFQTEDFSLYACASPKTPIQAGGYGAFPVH

[3] = tested on: Serine/threonine-protein kinase B-raf (Homo sapiens), P15056 [V600E]; assay: as §1; conditions: at 1 µM
Chain of Serine/threonine-protein kinase B-raf (Homo sapiens), P15056 [V600E] (P15056 whole entry V600E): as the sequence (P15056 whole entry) above, with V600E counted along it

[4] = target: Dual specificity protein kinase CLK1 (Homo sapiens, UniProt P49759); assay: Selectivity interaction (KinomeScan (DiscoverX)) EUB0000666a CLK1; conditions: at 10 µM
Chain of Dual specificity protein kinase CLK1 (P49759 whole entry, looked up): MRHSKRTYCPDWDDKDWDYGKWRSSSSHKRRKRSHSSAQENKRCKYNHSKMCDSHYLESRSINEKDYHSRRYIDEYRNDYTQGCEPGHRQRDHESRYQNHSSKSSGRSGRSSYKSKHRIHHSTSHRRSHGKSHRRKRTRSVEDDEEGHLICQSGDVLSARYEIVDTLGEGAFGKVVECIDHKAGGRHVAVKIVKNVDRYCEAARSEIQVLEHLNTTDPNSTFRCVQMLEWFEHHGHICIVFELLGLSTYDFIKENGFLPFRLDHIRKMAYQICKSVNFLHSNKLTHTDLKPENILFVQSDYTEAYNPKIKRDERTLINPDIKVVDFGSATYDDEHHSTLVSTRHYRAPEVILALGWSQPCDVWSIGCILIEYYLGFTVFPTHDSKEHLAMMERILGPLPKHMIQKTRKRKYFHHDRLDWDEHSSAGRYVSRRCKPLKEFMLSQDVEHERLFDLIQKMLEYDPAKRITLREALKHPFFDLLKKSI

SRSF protein kinase 1 = SRSF protein kinase 1 (Homo sapiens, UniProt Q96SB4); conditions: at 10 µM
Chain of SRSF protein kinase 1 (Q96SB4 whole entry): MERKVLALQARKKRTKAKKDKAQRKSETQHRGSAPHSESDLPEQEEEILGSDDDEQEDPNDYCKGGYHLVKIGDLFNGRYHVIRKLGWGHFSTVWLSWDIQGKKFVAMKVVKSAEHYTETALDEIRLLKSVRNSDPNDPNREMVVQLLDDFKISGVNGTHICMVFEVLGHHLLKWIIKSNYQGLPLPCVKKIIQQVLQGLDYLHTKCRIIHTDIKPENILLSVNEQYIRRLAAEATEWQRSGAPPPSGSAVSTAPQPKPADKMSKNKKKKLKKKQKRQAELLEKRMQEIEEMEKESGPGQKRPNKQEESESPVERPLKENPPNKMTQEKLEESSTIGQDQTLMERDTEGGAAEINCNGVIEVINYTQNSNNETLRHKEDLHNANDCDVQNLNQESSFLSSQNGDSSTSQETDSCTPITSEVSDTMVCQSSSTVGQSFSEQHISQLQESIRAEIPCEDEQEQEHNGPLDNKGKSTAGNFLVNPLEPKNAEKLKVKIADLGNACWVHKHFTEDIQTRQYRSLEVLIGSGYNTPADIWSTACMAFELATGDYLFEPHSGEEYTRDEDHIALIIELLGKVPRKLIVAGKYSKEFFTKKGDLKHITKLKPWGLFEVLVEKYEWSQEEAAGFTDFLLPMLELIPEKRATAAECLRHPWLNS

[5] = target: T2, 5-hydroxytryptamine receptor 3A (Homo sapiens) (UniProt P46098); assay: Selectivity interaction (Panel of kinases, GPCRs, ion channels and transporters (enzymatic assay)) EUB0000266bCl HTR3A
T2 sequence (whole entry): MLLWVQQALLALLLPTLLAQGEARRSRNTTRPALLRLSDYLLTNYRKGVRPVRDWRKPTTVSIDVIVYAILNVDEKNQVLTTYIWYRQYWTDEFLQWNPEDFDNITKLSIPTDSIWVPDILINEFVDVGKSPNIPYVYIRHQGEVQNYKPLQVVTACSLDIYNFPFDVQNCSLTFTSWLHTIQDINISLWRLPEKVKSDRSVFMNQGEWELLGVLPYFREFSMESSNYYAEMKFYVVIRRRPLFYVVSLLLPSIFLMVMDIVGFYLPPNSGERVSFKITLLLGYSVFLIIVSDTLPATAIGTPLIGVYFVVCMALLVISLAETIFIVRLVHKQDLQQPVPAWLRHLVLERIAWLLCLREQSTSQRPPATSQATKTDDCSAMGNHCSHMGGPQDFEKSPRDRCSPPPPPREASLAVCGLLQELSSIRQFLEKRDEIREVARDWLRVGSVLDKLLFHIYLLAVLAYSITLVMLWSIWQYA

[6] = target: Ribosomal protein S6 kinase alpha-1 (Homo sapiens, UniProt Q15418); assay: Selectivity interaction (ActivX KiNativ screen (kinase selectivity in THP-1 cell lysates)) EUB0000639a RPS6KA1; assay type: subcellular; conditions: lysate, at 0.01 µM
Chain of Ribosomal protein S6 kinase alpha-1 (Q15418 whole entry): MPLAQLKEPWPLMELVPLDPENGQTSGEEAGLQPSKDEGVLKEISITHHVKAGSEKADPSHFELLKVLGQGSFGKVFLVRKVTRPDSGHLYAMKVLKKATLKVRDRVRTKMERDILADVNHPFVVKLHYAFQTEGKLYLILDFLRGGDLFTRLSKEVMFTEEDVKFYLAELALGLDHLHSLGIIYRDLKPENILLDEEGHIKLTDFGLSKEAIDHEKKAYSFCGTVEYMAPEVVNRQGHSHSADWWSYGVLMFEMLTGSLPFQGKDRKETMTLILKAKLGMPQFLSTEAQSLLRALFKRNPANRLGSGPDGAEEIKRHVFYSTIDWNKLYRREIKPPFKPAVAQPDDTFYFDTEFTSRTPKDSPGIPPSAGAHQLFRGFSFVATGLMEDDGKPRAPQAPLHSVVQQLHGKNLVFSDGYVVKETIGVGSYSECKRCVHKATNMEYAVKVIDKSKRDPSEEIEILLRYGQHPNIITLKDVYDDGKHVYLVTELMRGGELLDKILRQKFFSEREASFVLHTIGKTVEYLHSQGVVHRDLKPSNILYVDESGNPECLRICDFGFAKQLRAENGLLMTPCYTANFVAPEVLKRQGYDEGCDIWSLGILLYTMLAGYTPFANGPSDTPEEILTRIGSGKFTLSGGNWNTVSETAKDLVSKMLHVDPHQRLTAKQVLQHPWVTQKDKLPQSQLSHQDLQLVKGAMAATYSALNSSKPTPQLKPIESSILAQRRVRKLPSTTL

[7] = tested on: Tyrosine-protein kinase ABL1 (Homo sapiens), P00519 [Y253F]; conditions: at 10 µM
[8] = target: Tyrosine-protein kinase JAK2 (Homo sapiens, UniProt O60674); assay: Selectivity interaction (KinomeScan (DiscoverX)) EUB0000092b JAK2; conditions: at 10 µM
Chain of Tyrosine-protein kinase JAK2 (O60674 whole entry): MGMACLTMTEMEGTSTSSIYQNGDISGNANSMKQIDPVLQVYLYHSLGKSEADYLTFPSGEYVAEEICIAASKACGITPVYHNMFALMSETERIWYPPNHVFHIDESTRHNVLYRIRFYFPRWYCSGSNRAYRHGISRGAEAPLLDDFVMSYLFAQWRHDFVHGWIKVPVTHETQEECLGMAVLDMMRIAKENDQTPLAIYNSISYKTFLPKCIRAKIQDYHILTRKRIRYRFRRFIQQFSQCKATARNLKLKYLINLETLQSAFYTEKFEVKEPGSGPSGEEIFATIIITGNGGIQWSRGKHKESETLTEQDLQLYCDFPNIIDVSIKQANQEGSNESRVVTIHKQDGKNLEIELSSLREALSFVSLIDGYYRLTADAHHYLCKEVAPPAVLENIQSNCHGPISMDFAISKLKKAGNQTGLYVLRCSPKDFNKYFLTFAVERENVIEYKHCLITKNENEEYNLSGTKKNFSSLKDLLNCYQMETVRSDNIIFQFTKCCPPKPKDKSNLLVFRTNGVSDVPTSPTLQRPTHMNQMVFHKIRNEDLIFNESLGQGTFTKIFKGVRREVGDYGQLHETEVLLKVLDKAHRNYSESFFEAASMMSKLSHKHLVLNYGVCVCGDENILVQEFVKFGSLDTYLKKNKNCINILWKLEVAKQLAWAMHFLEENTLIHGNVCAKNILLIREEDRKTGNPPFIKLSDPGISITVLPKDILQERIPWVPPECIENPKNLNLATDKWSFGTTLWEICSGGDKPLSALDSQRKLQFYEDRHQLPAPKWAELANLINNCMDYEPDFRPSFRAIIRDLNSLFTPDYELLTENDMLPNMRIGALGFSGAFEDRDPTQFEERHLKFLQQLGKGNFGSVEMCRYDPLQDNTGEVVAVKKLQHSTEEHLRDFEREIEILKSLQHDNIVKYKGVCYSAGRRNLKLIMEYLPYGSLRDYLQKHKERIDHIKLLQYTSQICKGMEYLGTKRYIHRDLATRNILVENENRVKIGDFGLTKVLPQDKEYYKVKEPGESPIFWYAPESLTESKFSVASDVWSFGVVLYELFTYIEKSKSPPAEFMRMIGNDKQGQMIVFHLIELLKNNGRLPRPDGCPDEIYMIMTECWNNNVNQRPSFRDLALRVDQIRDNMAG

[9] = target: T3, Tyrosine-protein kinase TXK (Homo sapiens) (UniProt P42681); assay: Selectivity interaction (KinomeScan (DiscoverX)) EUB0000092b TXK; conditions: at 10 µM
T3 sequence (whole entry): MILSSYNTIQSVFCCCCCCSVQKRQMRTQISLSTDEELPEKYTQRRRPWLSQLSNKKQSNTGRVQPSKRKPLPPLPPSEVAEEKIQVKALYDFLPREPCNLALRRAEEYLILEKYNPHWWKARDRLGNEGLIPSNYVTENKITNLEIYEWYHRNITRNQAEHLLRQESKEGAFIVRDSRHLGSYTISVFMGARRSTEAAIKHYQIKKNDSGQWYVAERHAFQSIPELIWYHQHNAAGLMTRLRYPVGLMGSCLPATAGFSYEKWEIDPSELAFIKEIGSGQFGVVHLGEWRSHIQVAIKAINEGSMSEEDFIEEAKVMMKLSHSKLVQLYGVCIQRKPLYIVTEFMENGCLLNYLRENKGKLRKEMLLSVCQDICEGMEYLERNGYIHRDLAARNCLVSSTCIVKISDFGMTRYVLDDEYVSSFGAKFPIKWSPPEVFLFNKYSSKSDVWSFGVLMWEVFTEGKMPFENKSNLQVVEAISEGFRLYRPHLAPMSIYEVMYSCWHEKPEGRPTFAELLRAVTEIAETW

Q: Which results are given for `COc1cc(N(C)c2ccnc3ccc(C(F)(F)F)cc23)cc(OC)c1OC`?
A: % binding [1]: 100%; % binding [2]: 71%; % binding [3]: 78%

Q: With `O=C(NOC[C@H](O)CO)c1ccc(F)c(F)c1Nc1ccc(I)cc1F` as the molecule, how does the % of control [4] read?
A: The % of control was 95%.

Q: With `Cc1cc([C@@H](C)Nc2ccccc2C(=O)O)c2nc(N3CCOCC3)cc(=O)n2c1` [AZD-6482] as the molecule, how does the % of control (SRSF protein kinase 1) read?
A: Its % of control is 100%.

Q: `CCn1c(-c2nc3cc(C(=O)N4CCCC(N)C4)ccc3n2C)cc2ccccc21` (stereo not given) was tested. Which pXC50 [5] did it give?
A: Its pXC50 is under 4.3 M.

Q: `CC[C@@H]1[C@H](F)C(=O)N[C@@H]1COc1nccc2cc(C(N)=O)c(OC)cc12` [ZIMLOVISERTIB] was tested. Which % of inhibition [6] did it give?
A: Its % of inhibition is 16.9%.

Q: `CCN(CC)CCCCNc1ncc2cc(-c3cc(OC)cc(OC)c3)c(NC(=O)NC(C)(C)C)nc2n1` was tested. Which % of control [7] did it give?
A: The % of control was 100%.

Q: With `CCC(=O)N1CCN(c2ccc(-n3c(=O)ccc4cnc5ccc(-c6cnc7ccccc7c6)cc5c43)cc2C(F)(F)F)CC1` as the molecule, how does the % of control [8] read?
A: Its % of control is 65%.

Q: What about the % of control [9] of the same molecule?
A: The % of control was 54%.

Reference: ChEMBL document CHEMBL5465560, “Selectivity Literature for EUbOPEN Chemogenomic Library” (2024)
